Experimental data as given in paper PMC3365763 (The Journal of Biological Chemistry, 2012).
Substitutions are numbered along the chain they refer to.

Experiments:
Assay type in all cases: biochemical
[1] = target: T1, TG2 (transglutaminase-2, transglutaminase type 2) (Homo sapiens, UniProt P21980, K598S/K600S/K602S/R601S)
T1 sequence (P21980 1-687 K598S/K600S/R601S/K602S): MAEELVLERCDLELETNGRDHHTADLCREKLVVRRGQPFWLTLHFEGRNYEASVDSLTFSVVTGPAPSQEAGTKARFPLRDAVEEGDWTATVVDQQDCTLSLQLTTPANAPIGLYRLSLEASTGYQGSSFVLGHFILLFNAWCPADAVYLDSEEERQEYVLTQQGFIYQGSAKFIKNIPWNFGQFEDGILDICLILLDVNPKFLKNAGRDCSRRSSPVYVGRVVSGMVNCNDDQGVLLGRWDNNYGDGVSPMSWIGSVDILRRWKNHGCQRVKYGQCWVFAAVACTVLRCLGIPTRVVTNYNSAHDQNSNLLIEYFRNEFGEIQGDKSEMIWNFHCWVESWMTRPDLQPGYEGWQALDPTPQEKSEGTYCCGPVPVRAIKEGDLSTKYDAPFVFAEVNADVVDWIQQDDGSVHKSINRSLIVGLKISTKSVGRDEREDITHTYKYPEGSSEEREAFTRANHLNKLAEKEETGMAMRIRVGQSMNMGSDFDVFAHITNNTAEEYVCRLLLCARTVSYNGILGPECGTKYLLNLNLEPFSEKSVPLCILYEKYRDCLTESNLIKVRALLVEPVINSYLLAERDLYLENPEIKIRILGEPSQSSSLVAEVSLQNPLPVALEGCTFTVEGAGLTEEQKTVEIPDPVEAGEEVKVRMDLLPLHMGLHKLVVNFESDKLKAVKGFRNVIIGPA

[2] = target: T2, TG2 (transglutaminase-2, transglutaminase type 2) (Homo sapiens, UniProt P21980, K634S)
T2 sequence (P21980 1-687 K634S): T1 sequence (P21980 1-687 K598S/K600S/R601S/K602S) with S598K, S600K, S601R, S602K, K634S

[3] = target: T3, TG2 (transglutaminase-2, transglutaminase type 2) (Homo sapiens, UniProt P21980, R262S)
T3 sequence (P21980 1-687 R262S): T1 sequence (P21980 1-687 K598S/K600S/R601S/K602S) with R262S, S598K, S600K, S601R, S602K

[4] = target: T4, TG2 (transglutaminase-2, transglutaminase type 2) (Homo sapiens, UniProt P21980, K265S)
T4 sequence (P21980 1-687 K265S): T1 sequence (P21980 1-687 K598S/K600S/R601S/K602S) with K265S, S598K, S600K, S601R, S602K

IC50 [1]: 148 ± 26 µM | IC50 [2]: 199 ± 36 µM | IC50 [3]: 23 ± 5 µM | IC50 [4]: 182 ± 17 µM
Structure (SMILES): Nc1nc2c(ncn2[C@@H]2O[C@H](COP(=O)(O)OP(=O)(O)OP(=O)(O)O)[C@@H](O)[C@H]2O)c(=O)[nH]1 [GTP]
